Data reported in the supplement of paper PMC10307832.

Columns and labels:
Assay in all cases: relative viability (nuclei count vs DMSO), 5 days (fraction); higher = more cells survive
LC-2-ad = test system: LC-2-ad
How it was run: (§1)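 Lung cancer cell lines, seeded in 1536-well plates, were treated the following day by pin tool with a single drug or with five library-drug doses (not always all listed) in √10 steps on top of a fixed anchor-drug dose. Cells were fixed and nuclei stained in one step after 5 days, and nuclei were counted. Relative viability is the nuclei count for treated wells divided by that for vehicle wells, reported as medians of duplicate plates.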

EKVX = test system: EKVX
How it was run: as §1

EMC-BAC-2 = test system: EMC-BAC-2
How it was run: as §1

NCI-H1793 = test system: NCI-H1793
How it was run: as §1

COR-L 105 = test system: COR-L 105
How it was run: as §1

NCI-H2126 = test system: NCI-H2126
How it was run: as §1

NCI-H1755 = test system: NCI-H1755
How it was run: as §1

NCI-H596 = test system: NCI-H596
How it was run: as §1

H3255 = test system: H3255
How it was run: as §1

NCI-H2009 = test system: NCI-H2009
How it was run: as §1

PC-14 = test system: PC-14
How it was run: as §1

UMC-11 = test system: UMC-11
How it was run: as §1

NCI-H2087 = test system: NCI-H2087
How it was run: as §1

NCI-H1395 = test system: NCI-H1395
How it was run: as §1

NCI-H1651 = test system: NCI-H1651
How it was run: as §1

CAL-12T = test system: CAL-12T
How it was run: as §1

NCI-H2023 = test system: NCI-H2023
How it was run: as §1

RERF-LC-KJ = test system: RERF-LC-KJ
How it was run: as §1

Compound `C=C1C(=O)O[C@@H](CCCCCCCC)[C@@H]1C(=O)O` [C-75] + CC1(C)CCC(c2ccc(Cl)cc2)=C(CN2CCN(c3ccc(C(=O)NS(=O)(=O)c4ccc(N[C@H](CCN5CCOCC5)CSc5ccccc5)c(S(=O)(=O)C(F)(F)F)c4)cc3)CC2)C1 [Navitoclax] (partner 0.5 µM) has a relative viability (LC-2-ad; first compound 0.08 µM) of 0.53, a relative viability (LC-2-ad; first compound 0.253 µM) of 0.56 and a relative viability (LC-2-ad; first compound 0.8 µM) of 0.479. It also gave a relative viability (LC-2-ad; first compound 8 µM) of 0.474, a relative viability (EKVX; first compound 0.08 µM) of 0.944 and a relative viability (EKVX; first compound 0.253 µM) of 0.893. It also gave a relative viability (EKVX; first compound 0.8 µM) of 0.831, a relative viability (EKVX; first compound 2.53 µM) of 0.864 and a relative viability (EKVX; first compound 8 µM) of 1.03. It also gave a relative viability (EMC-BAC-2; first compound 0.08 µM) of 1.13, a relative viability (EMC-BAC-2; first compound 0.253 µM) of 1.18 and a relative viability (EMC-BAC-2; first compound 0.8 µM) of 1.15. For the same compound, the relative viability (EMC-BAC-2; first compound 2.53 µM) was 1.07, the relative viability (EMC-BAC-2; first compound 8 µM) was 1.18 and the relative viability (NCI-H1793; first compound 0.08 µM) was 0.494. It also gave a relative viability (NCI-H1793; first compound 0.253 µM) of 0.564, a relative viability (NCI-H1793; first compound 0.8 µM) of 0.313 and a relative viability (NCI-H1793; first compound 2.53 µM) of 0.308. It also gave a relative viability (NCI-H1793; first compound 8 µM) of 0.29, a relative viability (COR-L 105; first compound 0.08 µM) of 0.81 and a relative viability (COR-L 105; first compound 0.253 µM) of 0.828. The relative viability (COR-L 105; first compound 0.8 µM) was 0.573, the relative viability (COR-L 105; first compound 2.53 µM) was 0.788 and the relative viability (COR-L 105; first compound 8 µM) was 0.562. The relative viability (NCI-H2126; first compound 0.08 µM) was 0.869, the relative viability (NCI-H2126; first compound 0.253 µM) was 0.902 and the relative viability (NCI-H2126; first compound 0.8 µM) was 0.871. The relative viability (NCI-H2126; first compound 2.53 µM) was 0.718, the relative viability (NCI-H2126; first compound 8 µM) was 0.818 and the relative viability (NCI-H1755; first compound 0.08 µM) was 0.945. For the same compound, the relative viability (NCI-H1755; first compound 0.253 µM) was 0.935, the relative viability (NCI-H1755; first compound 0.8 µM) was 1.02 and the relative viability (NCI-H1755; first compound 2.53 µM) was 0.711. It also gave a relative viability (NCI-H1755; first compound 8 µM) of 0.957, a relative viability (NCI-H596; first compound 0.08 µM) of 0.961 and a relative viability (NCI-H596; first compound 0.253 µM) of 1.16. The relative viability (NCI-H596; first compound 0.8 µM) was 0.901, the relative viability (NCI-H596; first compound 2.53 µM) was 0.771 and the relative viability (NCI-H596; first compound 8 µM) was 0.897. The relative viability (H3255; first compound 0.08 µM) was 0.565, the relative viability (H3255; first compound 0.253 µM) was 0.5 and the relative viability (H3255; first compound 0.8 µM) was 0.513. It also gave a relative viability (H3255; first compound 2.53 µM) of 0.466, a relative viability (H3255; first compound 8 µM) of 0.577 and a relative viability (NCI-H2009; first compound 0.08 µM) of 1.16. It also gave a relative viability (NCI-H2009; first compound 0.253 µM) of 1.08, a relative viability (NCI-H2009; first compound 0.8 µM) of 1.1 and a relative viability (NCI-H2009; first compound 2.53 µM) of 0.971. The relative viability (NCI-H2009; first compound 8 µM) was 0.946, the relative viability (PC-14; first compound 0.08 µM) was 1.01 and the relative viability (PC-14; first compound 0.253 µM) was 1. For the same compound, the relative viability (PC-14; first compound 0.8 µM) was 0.977, the relative viability (PC-14; first compound 2.53 µM) was 0.911 and the relative viability (PC-14; first compound 8 µM) was 0.978. For the same compound, the relative viability (UMC-11; first compound 0.08 µM) was 0.3, the relative viability (UMC-11; first compound 0.253 µM) was 0.299 and the relative viability (UMC-11; first compound 0.8 µM) was 0.292. It also gave a relative viability (UMC-11; first compound 2.53 µM) of 0.287, a relative viability (UMC-11; first compound 8 µM) of 0.239 and a relative viability (NCI-H2087; first compound 0.08 µM) of 1.02. It also gave a relative viability (NCI-H2087; first compound 0.253 µM) of 1.05, a relative viability (NCI-H2087; first compound 0.8 µM) of 0.934 and a relative viability (NCI-H2087; first compound 2.53 µM) of 0.927. The relative viability (NCI-H2087; first compound 8 µM) was 0.87, the relative viability (NCI-H1395; first compound 0.08 µM) was 1.13 and the relative viability (NCI-H1395; first compound 0.253 µM) was 1.24. It also gave a relative viability (NCI-H1395; first compound 0.8 µM) of 0.989, a relative viability (NCI-H1395; first compound 2.53 µM) of 0.813 and a relative viability (NCI-H1395; first compound 8 µM) of 1.26. It also gave a relative viability (NCI-H1651; first compound 0.08 µM) of 1.07, a relative viability (NCI-H1651; first compound 0.253 µM) of 1.11 and a relative viability (NCI-H1651; first compound 0.8 µM) of 0.955. It also gave a relative viability (NCI-H1651; first compound 2.53 µM) of 0.885, a relative viability (NCI-H1651; first compound 8 µM) of 0.901 and a relative viability (CAL-12T; first compound 0.08 µM) of 1.47. The relative viability (CAL-12T; first compound 0.253 µM) was 1.44, the relative viability (CAL-12T; first compound 0.8 µM) was 1.17 and the relative viability (CAL-12T; first compound 8 µM) was 1.08. For the same compound, the relative viability (NCI-H2023; first compound 0.08 µM) was 0.971, the relative viability (NCI-H2023; first compound 0.253 µM) was 1.04 and the relative viability (NCI-H2023; first compound 0.8 µM) was 0.959. For the same compound, the relative viability (NCI-H2023; first compound 2.53 µM) was 0.659, the relative viability (NCI-H2023; first compound 8 µM) was 0.945 and the relative viability (RERF-LC-KJ; first compound 0.08 µM) was 0.91. The relative viability (RERF-LC-KJ; first compound 0.253 µM) was 1.47, the relative viability (RERF-LC-KJ; first compound 0.8 µM) was 0.881 and the relative viability (RERF-LC-KJ; first compound 2.53 µM) was 0.843. The relative viability (RERF-LC-KJ; first compound 8 µM) was 0.802.
